The values below come from DBAASP.

Some test systems named below: Escherichia coli C25; Bacillus megaterium Bm11; Escherichia coli 078; Escherichia coli UB1005; Escherichia coli K99; Escherichia coli K88; Escherichia coli JJ2489; Escherichia coli; Escherichia coli J2210; Escherichia coli BW25113; Escherichia coli MC1041; Escherichia coli JW0013.
Common to all, as to experiment: ≥ marks a high value that may be exact or a test limit, other limits are often not marked, values filed in µg/mL are converted to µM
In test [1] the test system is Pseudomonas aeruginosa PAO1.
Test [2] relates to Escherichia coli DH5alpha.
Test [3] has as its system Porphyromonas gingivalis W50.
Test [4] relates to Pseudomonas aeruginosa ATCC 15692.
Test [5] relates to Listeria monocytogenes KCTC 19111.
Test [6] concerns Staphylococcus aureus ATCC 25923.
Test [7] deals with Escherichia coli ATCC 25922.
Test [8] relates to Staphylococcus epidermidis KCTC 1917.
In test [9] the test system is Salmonella typhimurium KCTC 1926.
Test [10] deals with Staphylococcus aureus ATCC 6538P.
Test [11] has as its system Pseudomonas aeruginosa Ps4.
The subject of test [12] is Enterobacter cloacae ATCC 49141.
In test [13] the test system is Streptococcus pyogenes ATCC 49399.
Test [14] concerns Enterococcus faecalis ATCC 19433.
Test [15] concerns Candida albicans ATCC 90028.
The subject of test [16] is Klebsiella aerogenes ATCC 35029.
Test [17] deals with Staphylococcus aureus USA 300.
In test [18] the test system is Pseudomonas aeruginosa ATCC 27853.
Test [19] deals with Pseudomonas aeruginosa ATCC 9027.
The test system of test [20] is Staphylococcus aureus USA 100.
Test [21] concerns Candida albicans CGMCC 2.2086.
Test [22] relates to Staphylococcus epidermidis ATCC 12228.
Test [23] deals with Candida tropicalis CGMCC 2.1975.
Test [24] concerns Salmonella enterica subsp. enterica serovar Pullorum ATCC 7913.
Test [25] deals with Salmonella enterica subsp. enterica serovar Typhimurium ATCC 14028.
Test [26] deals with Staphylococcus aureus ATCC 43300.
Test [27] has as its system Salmonella enterica subsp. enterica serovar Typhimurium C77-31.
Test [28] deals with Candida parapsilosis CGMCC 2.3989.
Test [29] has as its system Salmonella enterica subsp. enterica serovar Enteritidis MH91989.
For test [30], the system named is Salmonella enterica subsp. enterica serovar Infantis.
Test [31] deals with Salmonella enterica subsp. enterica serovar Newport.
Test [32] has as its system Escherichia coli JW2778 ΔygdD.
Test [33] relates to Salmonella enterica serovar Tennessee.
Test [34] deals with Salmonella typhimurium SL1344.
Test [35] has as its system Escherichia coli JW0368 ΔsbmA.
Test [36] concerns Escherichia coli K12 MG1655.

Values after ≈ are worked out from the molar mass of the structure shown. Values joined by “and” are separate entries in the source; they are usually repeats but may differ in a detail not shown here. Identical values can stand only once.

Usually MIC stands for the least concentration at which growth counts as inhibited. Lower therefore signals a more susceptible organism. As to `CC[C@H](C)[C@H](NC(=O)[C@H](CCC(N)=O)NC(=O)CN)C(=O)N[C@H](C(=O)N[C@@H](CC(N)=O)C(=O)N[C@@H](CC(C)C)C(=O)N[C@@H](CCCCN)C(=O)N[C@@H](C)C(=O)N[C@@H](CO)C(=O)N[C@@H](CC(C)C)C(=O)N[C@@H](CC(=O)O)C(=O)N[C@@H](CC(C)C)C(=O)N[C@@H](CC(C)C)C(N)=O)[C@@H](C)CC` [GQIINLKASLDLL], the results for the MIC in [1], in test [2] and in test [3] were more than 119 µM, not below 143 µM and not below 119 µM, respectively.
Regarding `NCCCC[C@H](NC(=O)CNC(=O)[C@H](Cc1c[nH]c2ccccc12)NC(=O)[C@H](CCCCN)NC(=O)[C@H](CCCCN)NC(=O)CNC(=O)[C@H](Cc1c[nH]c2ccccc12)NC(=O)[C@H](CCCCN)NC(=O)[C@H](CCCCN)NC(=O)CNC(=O)[C@H](Cc1c[nH]c2ccccc12)NC(=O)[C@@H](N)CCCCN)C(N)=O` [KWGKKWGKKWGK], the minimum inhibitory concentration (MIC) in [4] was 4 µM (≈ 6.06 µg/mL); in test [5], 8 µM (≈ 12.1 µg/mL); in [6] it was 64 µM (≈ 97 µg/mL); in test [7] it was 4 µM (≈ 6.06 µg/mL); in test [8], 8 µM (≈ 12.1 µg/mL); in test [9] it was 16 µM (≈ 24.3 µg/mL).
As for `CC[C@H](C)[C@H](NC(=O)CNC(=O)[C@H](CCCN=C(N)N)NC(=O)[C@H](Cc1ccc(O)cc1)NC(=O)[C@@H](NC(=O)[C@H](CCCN=C(N)N)NC(=O)[C@H](Cc1ccccc1)NC(=O)[C@H](Cc1c[nH]c2ccccc12)NC(=O)[C@@H](N)CCCCN)C(C)C)C(=O)N[C@@H](Cc1ccc(O)cc1)C(N)=O` [KWFRVYRGIY], the MIC in the test with Escherichia coli C25 is not below 720 µM; in [6] it was 180 µM (≈ 250 µg/mL).
`CC[C@H](C)[C@H](NC(=O)[C@H](CCCN=C(N)N)NC(=O)[C@@H](NC(=O)[C@H](CCCN=C(N)N)NC(=O)[C@H](Cc1c[nH]c2ccccc12)NC(=O)[C@H](Cc1ccccc1)NC(=O)[C@@H]1CCCN1)[C@@H](C)CC)C(=O)N[C@@H](CCCN=C(N)N)C(=O)N[C@@H](CCCN=C(N)N)C(N)=O` [PFWRIRIRR]: the minimum inhibitory concentration (MIC) was not below 40 µM in [10]; not below 48.1 µM in test [11]; 24.6 µM (≈ 32 µg/mL) in [1]; not below 40 µM in test [12]; 2.5 µM (≈ 3.25 µg/mL) in test [13]; not below 40 µM in [14]. The MIC in test [15] was not below 100 µM; in test [16], not below 40 µM; against Bacillus megaterium Bm11 it was 1.25 µM (≈ 1.62 µg/mL); in test [7], 8.71 µM and 10 µM; in test [17], 12.5 µM (≈ 16.2 µg/mL); in test [18], 40 µM (≈ 51.9 µg/mL). Further, the figures for the MIC in test [19] and in [20] were 100 µM (≈ 130 µg/mL) and 12.5 µM (≈ 16.2 µg/mL), respectively.
`CC[C@H](C)[C@H](NC(=O)[C@H](CCCN=C(N)N)NC(=O)[C@H](C)NC(=O)[C@H](C)N)C(=O)N[C@H](C(=O)N[C@@H](CC(C)C)C(=O)N[C@@H](CCCN=C(N)N)C(=O)N[C@H](C(=O)N[C@@H](CCCN=C(N)N)C(=O)N[C@@H](Cc1ccccc1)C(=O)N[C@@H](CCCN=C(N)N)C(N)=O)[C@@H](C)O)[C@@H](C)CC` [AARIILRTRFR]: the MIC was 4 µM (≈ 5.49 µg/mL) in the test with Escherichia coli 078; not below 128 µM in test [21]; 4 µM (≈ 5.49 µg/mL) against Escherichia coli UB1005; 16 µM (≈ 21.9 µg/mL) in [22]; not below 32 µM in test [23]; 8 µM (≈ 11 µg/mL) in test [24]. For the same molecule, the minimal inhibitory concentration (MIC) was 16 µM (≈ 21.9 µg/mL) in [6]; 16 µM (≈ 21.9 µg/mL) in test [25]; 16 µM (≈ 21.9 µg/mL) in [26]; 16 µM (≈ 21.9 µg/mL) in test [27]; not below 64 µM in test [28]; 4 µM (≈ 5.49 µg/mL) against Escherichia coli K99. The values for the MIC (against Escherichia coli K88; in [18]) were 4 µM (≈ 5.49 µg/mL) and more than 128 µM, respectively.
As to `CC(C)C[C@H](NC(=O)[C@H](CCCN=C(N)N)NC(=O)[C@@H]1CCCN1C(=O)[C@H](Cc1cnc[nH]1)NC(=O)[C@@H]1CCCN1C(=O)[C@@H]1CCCN1C(=O)[C@H](CCCN=C(N)N)NC(=O)[C@@H]1CCCN1C(=O)[C@H](CCC(N)=O)NC(=O)[C@@H]1CCCN1C(=O)[C@H](CCCCN)NC(=O)[C@H](Cc1ccc(O)cc1)NC(=O)[C@@H](NC(=O)[C@@H]1CCCN1C(=O)[C@H](CCCCN)NC(=O)[C@H](CC(N)=O)NC(=O)[C@H](CC(N)=O)NC(=O)CN)C(C)C)C(=O)O` [GNNKPVYKPQPRPPHPRL], the MIC in test [29] was found to be 0.031 µM (≈ 0.065 µg/mL); against Escherichia coli JJ2489, 0.031 µM (≈ 0.065 µg/mL); in [30], 0.024 µM (≈ 0.0503 µg/mL); in the test on Escherichia coli, 0.048 µM (≈ 0.101 µg/mL); against Escherichia coli J2210 it was 0.034 µM (≈ 0.0712 µg/mL); in test [31], 0.024 µM (≈ 0.0503 µg/mL). For the same molecule, the MIC in [32] was 0.024 µM (≈ 0.0503 µg/mL); in test [33] it was 0.024 µM (≈ 0.0503 µg/mL); against Escherichia coli BW25113, 0.017 µM (≈ 0.0356 µg/mL); against Escherichia coli MC1041, 0.024 µM (≈ 0.0503 µg/mL); with Escherichia coli JW0013, 0.012 µM (≈ 0.0251 µg/mL); in test [34] it was 0.034 µM (≈ 0.0712 µg/mL). Further, in test [35], the minimal inhibitory concentration (MIC) was found to be 0.096 µM (≈ 0.201 µg/mL).
Molecule `CC[C@H](C)[C@H](NC(=O)[C@H](CCCCN)NC(=O)[C@H](CCCCN)NC(=O)[C@@H](NC(=O)[C@@H](NC(=O)[C@H](CCCN=C(N)N)NC(=O)[C@H](CCCCN)NC(=O)[C@H](CCC(=O)O)NC(=O)CNC(=O)[C@H](C)N)[C@@H](C)CC)[C@@H](C)CC)C(=O)N[C@@H](CC(=O)O)C(=O)N[C@@H](CCC(=O)O)C(=O)N[C@@H](C)C(=O)N[C@@H](Cc1ccccc1)C(=O)N[C@@H](CCC(N)=O)C(=O)O` [AGEKRIIKKIDEAFQ] showed an MIC in test [36] not below 73.3 µM.
